According to patent publication US20240282401A1, “METHODS FOR ENZYME ENGINEERING” (The University of Manchester, priority 2021, published 2024):

Biological target: T1, HDNO D6 (Paenarthrobacter nicotinovorans, UniProt P08159, A237T/A42S/E349L/E351D/N413H/V430A)
T1 construct: This full-length gene design was then used to introduce genetic diversity to create a library; His tag (N); made in house; host or cells: E. coli BL21 (DE3)
Assay: Biotransformation turnover frequencies of amine substrates (GC-FID)
Assay type: biochemical, Arthrobacter nicotinovorans
Details: for TOF: HDNO D6 0.05 mg mL^−1, 10 mM substrate, 30° C., pH 8 100 mM buffer, conversions after 10 min; for Fold increase vs D2: TOF of HDNO D6 over HDNO D2 (0.2 mg ml^−1)
Description: Chiral normal phase HPLC was performed on an Agilent HPLC system (G1379A degasser, G1312A binary pump, a G1367A well plate autosampler unit, a G1316A temperature-controlled column compartment and a G1315C diode array detector) (Agilent Technologies Inc., Santa Clara, CA) equipped with a CHIRALCEL OD-H (250 mm length, 4.6 mm diameter, 5 μm particle size) analytical column (Daicel Corp., Osaka, Japan). The typical injection volume was 10 μL and chromatograms were monitored at 265 nm. Gas chromatographic (GC) analysis was performed on an Agilent 6850 GC (Agilent Technologies Inc., Santa Clara, CA) with a flame ionization detector and autosampler equipped with a HP-1 column of length 30 m, 0.32 mm inner diameter and 0.25 μm film thickness (Agilent Technologies Inc., Santa Clara, CA).
A typical 500 μL reaction mixture in a 2 mL tube contained 10 mM amine, 0.05 to 1 mg mL^−1 of purified HDNO variant in pH 8 100 mM NaPi buffer. Reactions were incubated at 30° C. with 250 r.p.m shaking for different reaction times, after which they were quenched by the addition of 50 μL of 10 M NaOH and extracted twice with 500 μL tert-butyl methyl ether (HPLC grade, Merck Life Science UK Limited, Gillingham). The organic fractions were combined and dried over anhydrous MgSO4 and analysed by GC-FID (conversions) or HPLC (enantiomeric ratios) on a chiral stationary phase (see Chromatography section for details). Turnover frequencies (TOF, min^−1) were calculated as the moles of product formed/moles of enzyme min^−1 based on conversions obtained by GC-FID analysis (see Chromatography method). The same response factor was considered for both substrate and product.

T1 sequence (P08159 other isoform, or with tags, fused parts or gaps A42S/A237T/E349L/E351D/N413H/V430A/C432S): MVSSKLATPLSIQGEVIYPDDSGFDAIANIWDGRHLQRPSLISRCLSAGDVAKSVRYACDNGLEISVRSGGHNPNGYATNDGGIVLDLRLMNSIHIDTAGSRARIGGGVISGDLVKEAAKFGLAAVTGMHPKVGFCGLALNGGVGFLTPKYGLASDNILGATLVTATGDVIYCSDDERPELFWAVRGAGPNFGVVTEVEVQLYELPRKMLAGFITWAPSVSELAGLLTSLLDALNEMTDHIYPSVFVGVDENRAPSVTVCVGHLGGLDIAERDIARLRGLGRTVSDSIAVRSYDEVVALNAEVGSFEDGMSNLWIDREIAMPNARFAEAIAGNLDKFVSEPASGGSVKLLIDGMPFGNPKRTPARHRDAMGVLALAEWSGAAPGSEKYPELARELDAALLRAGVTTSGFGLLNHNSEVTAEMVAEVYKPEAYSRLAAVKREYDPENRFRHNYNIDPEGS

SMILES | TOF | Fold increase vs D2 [fold]
c1ccc([C@H]2CCCN2)cc1 [Mutant 1a, (R)-2-phenylpyrrolidine] | 79.8 min⁻¹ | 5.8
CN(C)c1ccc(C2CCCN2)cc1 (centres unmarked) [Mutant 1b, 2-(4-dimethylaminophenyl)-pyrrolidine] | 181.2 min⁻¹ | 10.2
c1ccc(CCC2CCCN2)cc1 (centres unmarked) [Mutant 1c] | 28.8 min⁻¹ | 5.9
Clc1cccc(C2CCCN2)c1 (centres unmarked) [Mutant 1d] | 135.6 min⁻¹ | –
c1ccc(CCC2CCCCN2)cc1 (centres unmarked) [Mutant 1f] | 8.4 min⁻¹ | –
CC(N)c1ccccc1 (centres unmarked) [Mutant 1g] | 0.66 min⁻¹ | –
CCCCC[C@@H](C)N [Mutant 1h] | 0.42 min⁻¹ | –
C1CC2CNCC2C1 (centres unmarked) [Mutant 1i] | no measurable activity | –
